Laboratory results published in patent US11091488B2 (MISSION THERAPEUTICS LIMITED, priority 2015, dated 2021).

Target: USP30 (Homo sapiens (Human), UniProt Q70CQ3)
Experiment: USP30 biochemical IC50 assay
Settings: read-out: IC50 range; fluorescence polarisation, TAMRA labelled peptide linked to ubiquitin; 30 min pre-incubation, read after 2 hr
Procedure: USP30 Biochemical IC50 Assay
Dilution plates were prepared at 21 times the final concentration (2100 μM for a final concentration of 100 μM) in 50% DMSO in a 96-well polypropylene V-bottom plate (Greiner #651201). A typical 8-point dilution series to be 100, 30, 10, 3, 1, 0.3, 0.1, 0.03 μM final. Reactions were performed in duplicate in black 384 well plates (small volume, Greiner 784076) in a final reaction volume of 21 μl. Either 1 μl of 50% DMSO or diluted compound was added to the plate. USP30 was diluted in reaction buffer (40 mM Tris, pH 7.5, 0.005% Tween 20, 0.5 mg/ml BSA, 5 mM—beta-mercaptoethanol) to the equivalent of 0.05 μl/well and 10 μl of diluted USP30 was added to the compound. Enzyme and compound were incubated for 30 min at room temp. Reactions were initiated by the addition of 50 nM of TAMRA labelled peptide linked to ubiquitin via an iso-peptide bond as fluorescence polarisation substrate. Reactions were read immediately after addition of substrate and following a 2 hr incubation at room temperature. Readings were performed on a Pherastar Plus (BMG Labtech). λ Excitation 540 nm; λ Emission 590 nm.

USP30, sequence (Q70CQ3 57-517): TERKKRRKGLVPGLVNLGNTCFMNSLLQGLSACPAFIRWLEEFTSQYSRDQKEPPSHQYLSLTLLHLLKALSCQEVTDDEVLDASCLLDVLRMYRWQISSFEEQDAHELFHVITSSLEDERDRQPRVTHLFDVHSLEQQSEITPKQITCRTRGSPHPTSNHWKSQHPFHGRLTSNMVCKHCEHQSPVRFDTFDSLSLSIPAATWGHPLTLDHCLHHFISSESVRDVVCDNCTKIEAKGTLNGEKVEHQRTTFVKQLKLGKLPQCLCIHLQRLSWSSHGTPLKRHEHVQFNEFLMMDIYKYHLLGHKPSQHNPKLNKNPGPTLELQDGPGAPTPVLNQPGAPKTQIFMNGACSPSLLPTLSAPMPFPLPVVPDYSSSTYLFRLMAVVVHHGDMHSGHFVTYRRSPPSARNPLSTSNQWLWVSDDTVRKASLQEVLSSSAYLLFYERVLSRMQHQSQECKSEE

Row | SMILES | IC50
1 | CN1c2cc(-c3ccccc3)ccc2CN([C@@H]2CCN(C#N)C2)S1(=O)=O [Example 73, (R)-3-(1-methyl-2,2-dioxido-7-phenyl-1,4-dihydro-3H-benzo[c][1,2,6]thiadiazin-3-yl)pyrrolidine-1-carbonitrile] | 100 to 1000 nM
2 | N#CN1CC[C@@H](N2Cc3cc(-c4ccccc4)ccc3NS2(=O)=O)C1 [Example 75, (R)-3-(2,2-dioxido-6-phenyl-1,4-dihydro-3H-benzo[c][1,2,6]thiadiazin-3-yl)pyrrolidine-1-carbonitrile] | 1000 to 10000 nM
3 | CN(c1ccccc1)S(=O)(=O)N(C)C1CCN(C#N)C1 (stereo not shown) [Example 76, N-(1-cyanopyrrolidin-3-yl)-N,N′-dimethyl-N′-phenylsulfuric diamide] | 1000 to 10000 nM
4 | N#CN1CC[C@@H](N2Cc3cccc(N4CCOCC4)c3NS2(=O)=O)C1 [Example 77, (R)-3-(8-morpholino-2,2-dioxido-1,4-dihydro-3H-benzo[c][1,2,6]thiadiazin-3-yl)pyrrolidine-1-carbonitrile] | 1000 to 10000 nM
